Here are results for 4 compounds from patent publication US5489524A, “Chimeric protein that has a human Rho motif and deoxyribonuclease activity” (The United States of America as represented by the …, priority 1992, dated 1996).

This experiment has as its system Mammalian Endo-Exonuclease. The experiment is described as follows: ss- and ds-DNase activities of the purified endo-exonuclease with divalent metal ions, NaCl, ATP or GTP (release of acid-soluble radioactivity from 32P-labeled pBR322 DNA). The format is biochemical, Monkey. The settings on record: for Activity % ds-DNase / Activity % ss-DNase: 37° C. The procedure:
The assay mixture contained 100 mM Tris-HCl pH 8.0, 10 mM MgCl2, and 17 μg of ^32 P-labelled linearized plasmid DNA. One unit of activity is defined as the amount of deoxyribonuclease which renders 1 μg of DNA acid-soluble in 30 min at 37° C. The plasmid was labeled using a random oligo-priming kit (Pharmacia Fine Chemical).
The ratios are calculated with respect to the activity of 10 mM Mg^2+ (100%).
The nuclease activities of putative recombination nucleases of E. coli are known to be affected by ATP. Moreover S. cerevisiae endo-exonuclease is believed to contain a region homologous to GTP-binding sites. The effects of ATP and GTP on the purified mammalian endo-exonuclease were therefore chosen to study.

The mark [1] stands for this setting: 0.1 mM nucleotide added, 10 mM Mg^2+.
Setting [2] is: 1.0 mM nucleotide added, 10 mM Mg^2+.
[3] abbreviates: metal ion 0.5 mM, activity with 10 mM Mg^2+ = 100%.
The mark [4] stands for this setting: metal ion 5.0 mM, activity with 10 mM Mg^2+ = 100%.
Setting [5] is: metal ion 10.0 mM, reference = 100%.
[6] abbreviates: metal ion […], activity with 10 mM Mg^2+ = 100%.
[7] abbreviates: metal ion 0.1 mM, activity with 10 mM Mg^2+ = 100%.
The mark [8] stands for this setting: metal ion 1.0 mM, activity with 10 mM Mg^2+ = 100%.

On to `Nc1nc2c(ncn2[C@@H]2O[C@H](COP(=O)(O)OP(=O)(O)OP(=O)(O)O)[C@@H](O)[C@H]2O)c(=O)[nH]1` [GTP], for which the “effect on ds-DNase activity” value (0.1 mM) is “slight enhancement of ds-DNase activity”. Under setting [1], the “Activity % ds-DNase” value worked out at 112% and the “Activity % ss-DNase” value was 85%. Besides, under setting [2], the “Activity % ds-DNase” value is recorded as 73% and the “Activity % ss-DNase” value was 68%. Moreover, the “effect on ss-DNase and ds-DNase activities” value (0.1-1.0 mM) is recorded as “slightly inhibited”.

For `[Mg+2]` [Mg^2+], the “optimal concentration for ds-DNase” value was 2.5 mM and the “optimal concentration for ss-DNase” value was determined as 0.5 mM. Also, the “Ratio of Activities for ss/ds-DNase” value (metal ion 0.5 mM) was 2.2. Moreover, under setting [3], the “Activity % ds-DNase” value amounted to 128% and the “Activity % ss-DNase” value was determined as 217%. Also, under setting [4], the “Activity % ds-DNase” value was determined as 120% and the “Activity % ss-DNase” value amounted to 173%. Moreover, the “Ratio of Activities for ss/ds-DNase” value (metal ion 10.0 mM) stood at 1.3. Under setting [5], the “Activity % ds-DNase” value is recorded as 100% and the “Activity % ss-DNase” value was determined as 100%. Moreover, under setting [6], the “Activity % ds-DNase” value came out at 168% and the “Activity % ss-DNase” value worked out at 203%.

As to `[Zn+2]` [Zn^2+], the “ability to replace Mg^2+ as cofactor” value is reported as “partially substitute for Mg^2+” and the “concentration with inhibitory effects on the nuclease activities” value was ≥ 0.25 mM. Further, under setting [7], the “Activity % ds-DNase” value is recorded as 70% and the “Activity % ss-DNase” value was 75%. Under setting [3], the “Activity % ds-DNase” value is recorded as 0% and the “Activity % ss-DNase” value was 0%. Besides, the “Activity % ss-DNase” value under setting [8] is 0%. Besides, under setting [6], the “Activity % ds-DNase” value is listed as 0% and the “Activity % ss-DNase” value amounted to 0%.

Turning to `[Mn+2]` [Mn^2+], the “ability to replace Mg^2+ as cofactor” value was “partially substitute for Mg^2+” and the “concentration with inhibitory effects on the nuclease activities” value is ≥ 2.0 mM. In addition, the “Ratio of Activities for ss/ds-DNase” value (metal ion 0.5 mM) was found to be 1.7. Also, under setting [3], the “Activity % ds-DNase” value is 195% and the “Activity % ss-DNase” value stood at 258%. Further, for the setting “metal ion 1.0 mM”, the “Ratio of Activities for ss/ds-DNase” value was 1.4. Under setting [8], the “Activity % ds-DNase” value is listed as 212% and the “Activity % ss-DNase” value was determined as 215%. Besides, the “Activity % ss-DNase” value (metal ion 2.0 mM, activity with 10 mM Mg^2+ = 100%) turned out to be 0%. Besides, the “Activity % ss-DNase” value under setting [4] worked out at 0%. Under setting [6], the “Activity % ds-DNase” value amounted to 0% and the “Activity % ss-DNase” value is recorded as 0%.
